What all share (assay type): functional, organism-based
For experiment [1], the system named is Human alphaherpesvirus 2. As to the kind of experiment: Antiviral activity against HSV2 assessed as inhibition of viral replication.
In experiment [2] the test system is Influenza A virus. As to the kind of experiment: Antiviral activity against influenza A virus H5N1 assessed as inhibition of viral replication.
The subject of experiment [3] is Influenza B virus. The experiment in a line: Antiviral activity against influenza B virus assessed as inhibition of viral replication.
Experiment [4] concerns Influenza A virus. The experiment in a line: Antiviral activity against influenza A virus H3N2 assessed as inhibition of viral replication.
In experiment [5] the test system is Human alphaherpesvirus 1. As to the kind of experiment: Antiviral activity against HSV1 assessed as inhibition of viral replication.
Experiment [6] concerns Influenza A virus. As to the kind of experiment: Antiviral activity against influenza A virus H1N1 assessed as inhibition of viral replication.
In experiment [7] the test system is Hepatitis C virus. As to the kind of experiment: Antiviral activity against HCV assessed as inhibition of viral replication. Conditions: Hepacivirus hominis.
The test system of experiment [8] is Hepatitis B virus. As to the kind of experiment: Antiviral activity against HBV assessed as inhibition of viral DNA replication at 10 uM.

Activity calls are given as the source filed them. No cut-off for these calls is given here.

For the compound `C=C(C)[C@@H]1CC[C@]2(C(=O)O)CC[C@]3(C)[C@H](CC[C@@H]4[C@@]5(C)CC[C@H](OC(=O)c6cccnc6)C(C)(C)[C@@H]5CC[C@]43C)[C@@H]12`, the outcome in experiment [1], in experiment [2], in experiment [3], in experiment [4] and in experiment [5] was inactive.

Take `C=C(C)[C@@H]1CC[C@]2(COC(=O)/C=C/c3ccc(OC)cc3)CC[C@]3(C)[C@H](CC[C@@H]4[C@@]5(C)CC[C@H](O)C(C)(C)[C@@H]5CC[C@]43C)[C@@H]12`: the result in experiment [6] was Active.

Consider `C#C[C@@H]1CC[C@]2(CO)CC[C@]3(C)[C@H](CC[C@@H]4[C@@]5(C)CC[C@H](O)C(C)(C)[C@@H]5CC[C@]43C)[C@@H]12`, for which the result in experiment [1], in experiment [2], in experiment [8], in experiment [3], in experiment [4] and in experiment [5] was inactive. Also, in experiment [7], the outcome was Active.

Consider `C[C@H]1[C@H](C)CC[C@]2(C(=O)O)CC[C@]3(C)C(=CC[C@@H]4[C@@]5(C)CC/C(=N\OCCC#N)C(C)(C)[C@@H]5CC[C@]43C)[C@H]12`, for which the outcome in experiment [1], in experiment [2], in experiment [3], in experiment [4] and in experiment [5] was inactive.

`C=C(C)[C@@H]1CC[C@]2(COC(=O)c3cccnc3)CC[C@]3(C)[C@H](CC[C@@H]4[C@@]5(C)CC[C@H](OC(=O)c6cccnc6)C(C)(C)[C@@H]5CC[C@]43C)[C@@H]12`: the result in experiment [1], in experiment [2], in experiment [3], in experiment [4] and in experiment [5] was inactive.

With `C=C(C)[C@@H]1CC[C@]2(COCCCNCCC#N)CC[C@]3(C)[C@H](CC[C@@H]4[C@@]5(C)CC[C@H](OC(=O)c6cccnc6)C(C)(C)[C@@H]5CC[C@]43C)[C@@H]12`, the result in experiment [1], in experiment [2], in experiment [3], in experiment [4] and in experiment [5] was inactive.
